From patent publication EP1944022A1, “PHARMACEUTICAL COMPOSITIONS COMBINING […] ANTICONVULSANT AGENTS FOR THE TREATMENT OF CHRONIC AND ACUTE PAIN” (ESPINOZA ABDALA, Leopoldo de Jesús, priority 2005, dated 2007)

System: nociceptive pain
Assay: uric acid-induced knee joint inflammation and pain in rats, recovery of Functionality Ratio (AUC over 4 hours)
Type: in vivo, female Wistar rats
Conditions: rat
Experimental: An experimental preclinical study was performed that compares the analgesic effect of tramadol and gabapentin administered individually and in combination, using female Wistar rats weighting from 160 to 180 g, which were intraarticularly injected 0.05 ml uric acid suspended in mineral oil into knee joint of left hindleg under anesthesia in order to cause inflammation and pain. An electrode was connected at the plantar region of hindlegs. The rats were placed in a roller of 30 cm of diameter rotating at 4 rpm during two-minute periods. The time of contact between each electrode of the rats' hindlegs and the roller was registered. The data are expressed as Functionality Ratio (FR). […] At the same time the medicaments, alone or in combination, were administered, and the Functionality Ratio every 30 minutes for 4 hours was determined. […]
Doses used for the combination were 3.16, 5.62, 10.0 or 17.78, 31.62, 56.23, 100.0 mg/kg of tramadol and those used for gabapentin were 31.6, 56.2, 100.0, 177.8, 316.2 mg/kg. Thus, the possible synergistic interaction (a total of 24 combinations) was analyzed.
The synergism between gabapentin and tramadol was calculated with the synergistic interaction surface analysis and an isobolographic method (Tallarida et al., 1989). The area under the curve (AUC) was calculated for each of the combinations and for each of the components.

| Compound | total analgesic effect, area under the curve (AUC) (in vivo) | total analgesic effect, area under the curve (AUC) (gabapentin alone 316.2 mg/kg, 4-hours observation period) |
| --- | --- | --- |
| COc1cccc(C2(O)CCCCC2CN(C)C)c1 (mixture of isomers) [tramadol, (±) cis-2-[(dimethylamino)methyl]-1-(3-metoxyphenyl) cyclohexanol] | 207.7 ± 24.7 area units | – |
| NCC1(CC(=O)O)CCCCC1 [Gabapentin] | – | 121.5 ± 30.3 area units |
